Earlier results in patent US20160000075A1, “USE OF PYRIMIDINES IN STIMULATION OF PLANT GROWTH AND DEVELOPMENT AND ENHANCEMENT OF STRESS TOLERANCE” (ULUDAG ÜNIVERSITESI TEKNOLOJI TRANSFER OFISI TICARET VE …, priority 2013, published 2016).

Key:
[1] = system: hypoxic and ischemic brain injuries; conditions: animal experiments and some clinical studies
cabbage = conditions: external administration
clover = conditions: external administration
[2] = system: plant species such as Arabidopsis thaliana, Solanum tuberosum, Fragaria×ananassa, Medicago sativa, Triticum aestivum, Zea mays; conditions: external administration
[3] = system: brain lesion, rotational behaviour; conditions: uridine administered in the form of UMP
tomato = conditions: 4 mM concentration
cellular regeneration = conditions: compared to only using auxin in culture medium
[4] = system: hypoxic ischemic brain damage; conditions: infant rats exposed to hypoxic ischemic brain damage
[5] = humans
[6] = system: learning and memory functions; conditions: experimental animals, also environmentally impoverished animals

C[N+](C)(C)CCOP(=O)(O)OP(=O)([O-])OC[C@H]1O[C@@H](n2ccc(N)nc2=O)[C@H](O)[C@@H]1O [CDP-choline, cytidine-5′-diphosphate choline]
damage in hypoxic and ischemic brain injuries [1]: reduces damage in hypoxic and ischemic brain injuries

C[N+](C)(C)CC(=O)O [GlyBet, glycine betain]
tolerance against frost (cabbage): increases tolerance against frost | tolerance against frost (clover): increases tolerance against frost | low temperature stress tolerance [2]: increase low temperature stress tolerance

O=c1ccn([C@@H]2O[C@H](COP(=O)(O)O)[C@@H](O)[C@H]2O)c(=O)[nH]1 [UMP, uridine-5′-monophosphate]
brain lesion and rotational behaviour [3]: ameliorated brain lesion and reduced rotational behaviour

NCCCCNCCCN [spermidine]
high temperature tolerance (tomato): increase high temperature tolerance

O=c1ccn([C@@H]2O[C@H](CO)[C@@H](O)[C@H]2O)c(=O)[nH]1 [uridine]
growth and branching of neurons (neurons in the culture): increases the growth and branching of these cells | cellular regeneration (cellular regeneration): increases cellular regeneration | level of brain damage [4]: significantly reduced the level of damage | adverse effect of intravenous dose ([5]; intravenously, 10 g/m^2): cause shaking | adverse effect of high oral dosage ([5]; oral, 10 g per day): causes diarrhea | learning and memory functions [6]: increase learning and memory functions
